Data: publication PMC9151520 (Archives of Toxicology, 2022)
Read-outs that look alike come from different tables or passages of the source.

Assays:
[1] = system: p53 signaling (p53RE-bla HCT-116 cells)
[2] = system: p53 signaling (p53RE-bla HCT-116 cells); remark: listed apart in the source
p53RE-bla HCT-116 cells [3] = system: p53RE-bla HCT-116 cells
[4] = system: p53 signaling (p53RE-bla HCT-116 cells); experiment: cells; assay type: cell-based; conditions: for EC50 / Emax: Homo sapiens
p53RE-bla HCT-116 cells [5] = experiment: cells; conditions: Homo sapiens
[6] = HCT-116, read-out: p53 activation EC50, cherry pick confirmation
[7] = HCT-116, read-out: p53 activation EC50, primary screening
[8] = HCT-116, read-out: p53 activation efficacy, cherry pick confirmation
[9] = HCT-116, read-out: p53 activation efficacy, primary screening
[10] = HCT-116, read-out: Viability EC50, cherry pick confirmation
[11] = HCT-116, read-out: EC50, p53 activation, cherry pick confirmation
[12] = HCT-116, read-out: Efficacy, p53 activation, cherry pick confirmation

Row | Compound | p53 activation EC50, cherry pick confirmation [1] | p53 activation EC50, primary screening [1] | p53 activation efficacy, cherry pick confirmation [1] | p53 activation efficacy, primary screening [1] | p53 activation EC50, cherry pick confirmation [2] | p53 activation EC50, primary screening [2] | p53 activation efficacy, cherry pick confirmation [2] | p53 activation efficacy, primary screening [2] | Viability EC50, cherry pick confirmation (p53RE-bla HCT-116 cells [3]) | Viability EC50, primary screening (p53RE-bla HCT-116 cells [3]) | EC50 [4, 6] [µM] | EC50 [4, 7] [µM] | Emax [4, 8] [%] | Emax [4, 9] [%] | EC50 (p53RE-bla HCT-116 cells [5]; [10]) [µM] | Viability efficacy, primary screening (p53RE-bla HCT-116 cells [3]) | EC50, p53 activation, cherry pick confirmation [1] | Efficacy, p53 activation, cherry pick confirmation [1] | EC50, p53 activation, cherry pick confirmation [2] | EC50, p53 activation, primary screening [2] | other results
1 | CC(C)C[C@H](NC(=O)[C@H](Cc1ccccc1)NC(=O)c1cnccn1)B(O)O [Bortezomib] | inactive | inactive | inactive | inactive | inactive | inactive | inactive | inactive | inactive | inactive | 0.101 | 0.0122 | 134 | 104 | 0.397 |  |  |  |  |  | EC50 (p53RE-bla HCT-116 cells [5]; HCT-116, read-out: Viability EC50, primary screening): 0.428 µM
2 | CC(C)(C)[C@H]1CC[C@H](CC2=C(O)C(=O)c3ccccc3C2=O)CC1 [Buparvaquone] | inactive | inactive | inactive | inactive | inactive | inactive | inactive | inactive | inactive | inactive |  | 1.41 |  | 33.8 | 1.99 | inactive |  |  |  |  | p53 activation EC50, cherry pick confirmation [4]: inactive; p53 activation efficacy, cherry pick confirmation [4]: inactive
3 | CO[C@@]12[C@H](COC(N)=O)C3=C(C(=O)C(C)=C(N)C3=O)N1C[C@@H]1N[C@@H]12 [Mitomycin C] |  |  |  |  |  |  |  |  |  |  |  |  |  |  |  |  | inactive | inactive | inactive | inactive | Efficacy, p53 activation, cherry pick confirmation [2]: inactive; Efficacy, p53 activation, primary screening [2]: inactive; EC50, viability, cherry pick confirmation (p53RE-bla HCT-116 cells [3]): inactive; EC50, viability, primary screening (p53RE-bla HCT-116 cells [3]): inactive; Efficacy, viability, primary screening (p53RE-bla HCT-116 cells [3]): inactive; EC50 [4, 11]: 2.12 µM; Emax [4, 12]: 134%; EC50 (p53RE-bla HCT-116 cells [5]; HCT-116, read-out: EC50, viability, cherry pick confirmation): 17.8 µM
4 | CN(C)c1ccc2nc3ccc(=[N+](C)C)cc-3sc2c1 [Methylene blue] | inactive | inactive | inactive | inactive | inactive | inactive | inactive | inactive | inactive | inactive | 15.3 | 10.3 | 53.2 | 53.4 | 15.8 | inactive |  |  |  |  | 
5 | Oc1ccc(C(c2ccc(O)cc2)(C(F)(F)F)C(F)(F)F)cc1 [Bisphenol AF] |  |  |  |  |  |  |  |  |  |  |  |  |  |  |  |  | inactive | inactive | inactive | inactive | EC50, p53 activation, primary screening [1]: inactive; Efficacy, p53 activation, primary screening [1]: inactive; Efficacy, p53 activation, cherry pick confirmation [2]: inactive; Efficacy, p53 activation, primary screening [2]: inactive; EC50, viability, cherry pick confirmation (p53RE-bla HCT-116 cells [3]): inactive; EC50, viability, primary screening (p53RE-bla HCT-116 cells [3]): inactive; Efficacy, viability, cherry pick confirmation (p53RE-bla HCT-116 cells [3]): inactive; EC50 (p53RE-bla HCT-116 cells [3]; read-out: EC50, viability, primary screening): 47.6 µM; EC50 [4, 11]: 31.7 µM; EC50 ([4]; HCT-116, read-out: EC50, p53 activation, primary screening): 28.9 µM; Emax [4, 12]: 55.4%; Emax ([4]; HCT-116, read-out: Efficacy, p53 activation, primary screening): 33.6%; EC50 (p53RE-bla HCT-116 cells [5]; HCT-116, read-out: EC50, viability, primary screening): 47.4 µM
